The source of these data is ChEMBL document CHEMBL1201862, “PubChem BioAssay data set” (2004).

Each structure is given as a SMILES string. The source made the active and inactive calls.

The target in test [1] is T1, Apoptotic protease-activating factor 1 (Homo sapiens, UniProt O14727).
T1 sequence (O14727 whole entry): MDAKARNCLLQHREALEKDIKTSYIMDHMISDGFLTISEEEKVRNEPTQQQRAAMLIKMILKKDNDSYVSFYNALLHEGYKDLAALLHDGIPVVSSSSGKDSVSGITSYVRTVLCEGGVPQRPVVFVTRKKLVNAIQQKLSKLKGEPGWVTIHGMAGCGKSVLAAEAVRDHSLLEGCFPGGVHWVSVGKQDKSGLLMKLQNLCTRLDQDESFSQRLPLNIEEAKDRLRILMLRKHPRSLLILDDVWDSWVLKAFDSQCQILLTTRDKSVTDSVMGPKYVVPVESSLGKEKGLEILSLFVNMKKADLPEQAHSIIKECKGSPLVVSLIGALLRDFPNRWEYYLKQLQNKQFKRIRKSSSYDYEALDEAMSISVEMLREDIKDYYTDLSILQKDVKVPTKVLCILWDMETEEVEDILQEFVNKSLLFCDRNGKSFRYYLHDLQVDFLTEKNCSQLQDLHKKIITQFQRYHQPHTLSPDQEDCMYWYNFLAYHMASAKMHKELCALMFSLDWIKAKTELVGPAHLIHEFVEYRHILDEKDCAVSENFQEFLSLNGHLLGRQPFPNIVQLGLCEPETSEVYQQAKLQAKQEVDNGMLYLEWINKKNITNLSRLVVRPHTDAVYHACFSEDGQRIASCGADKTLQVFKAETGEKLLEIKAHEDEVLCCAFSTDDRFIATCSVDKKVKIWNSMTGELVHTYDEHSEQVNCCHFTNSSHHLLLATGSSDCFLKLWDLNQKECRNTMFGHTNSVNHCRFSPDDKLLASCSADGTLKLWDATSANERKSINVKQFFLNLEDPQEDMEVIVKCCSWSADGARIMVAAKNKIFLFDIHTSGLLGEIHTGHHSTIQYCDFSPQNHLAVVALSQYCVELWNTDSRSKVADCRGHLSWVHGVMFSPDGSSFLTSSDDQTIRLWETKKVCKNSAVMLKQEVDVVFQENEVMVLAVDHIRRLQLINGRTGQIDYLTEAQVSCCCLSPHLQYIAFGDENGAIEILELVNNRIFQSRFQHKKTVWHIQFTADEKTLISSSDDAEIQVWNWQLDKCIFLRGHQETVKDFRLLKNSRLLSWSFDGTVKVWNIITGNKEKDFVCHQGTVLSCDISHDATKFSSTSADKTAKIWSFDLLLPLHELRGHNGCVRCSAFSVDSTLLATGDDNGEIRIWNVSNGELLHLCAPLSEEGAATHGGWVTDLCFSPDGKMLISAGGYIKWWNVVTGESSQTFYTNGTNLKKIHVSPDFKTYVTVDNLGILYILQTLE
Put plainly: activation of Apaf-1 mediated apoptosis – fluorescent, uHTS hits, dose response (AID 588554). It counts as functional.

Test [2] has as its target DNA dC->dU-editing enzyme APOBEC-3G (Homo sapiens, UniProt Q9HC16). The test can be described thus: Dose Response confirmation of small molecule APOBEC3G DNA Deaminase Inhibitors via a fluorescence-based single-stranded DNA deaminase assay. [Related pubchem assays (depositor defined):AID493012, AID493028]. It counts as functional.
The target of test [3] is T2, Carboxy-terminal domain RNA polymerase II polypeptide A small phosphatase 1 (Homo sapiens, UniProt Q9GZU7).
T2 sequence (Q9GZU7 whole entry): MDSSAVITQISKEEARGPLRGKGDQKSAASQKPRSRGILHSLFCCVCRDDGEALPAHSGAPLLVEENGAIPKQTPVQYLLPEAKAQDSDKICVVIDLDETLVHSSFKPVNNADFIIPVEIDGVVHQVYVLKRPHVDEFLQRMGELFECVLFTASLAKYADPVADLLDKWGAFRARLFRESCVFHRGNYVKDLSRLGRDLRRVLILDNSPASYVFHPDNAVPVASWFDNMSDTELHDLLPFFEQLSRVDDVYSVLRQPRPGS
The test can be described thus: inhibitors of CTDSP1, concentration-response testing, biochemical assay, absorbance-based, actives from ultra-high-throughput screening (AID 540297). It counts as functional.

Test [4] addresses T3, Small ubiquitin-related modifier 1 (Homo sapiens, UniProt P63165). Put plainly: inhibitors of SUMO1 partner interactions, dose response, biochemical, FRET (AID 624383). It counts as functional. The conditions noted are these: read-out: IC50_Mean.
Test [5] deals with T3, Small ubiquitin-related modifier 1. Put plainly: inhibitors of SUMO1 peptide binding, dose response, biochemical, fluorescence polarization, uHTS hits (AID 624382). It counts as functional. The conditions noted are these: read-out: IC50_Mean. A general note: Polarisation of emitted light reports the rotation of a fluorescent probe.
The target in test [6] is Induced myeloid leukemia cell differentiation protein Mcl-1 (Homo sapiens, UniProt Q07820). Type of test: functional.
Induced myeloid leukemia cell differentiation protein Mcl-1, sequence (Q07820 whole entry): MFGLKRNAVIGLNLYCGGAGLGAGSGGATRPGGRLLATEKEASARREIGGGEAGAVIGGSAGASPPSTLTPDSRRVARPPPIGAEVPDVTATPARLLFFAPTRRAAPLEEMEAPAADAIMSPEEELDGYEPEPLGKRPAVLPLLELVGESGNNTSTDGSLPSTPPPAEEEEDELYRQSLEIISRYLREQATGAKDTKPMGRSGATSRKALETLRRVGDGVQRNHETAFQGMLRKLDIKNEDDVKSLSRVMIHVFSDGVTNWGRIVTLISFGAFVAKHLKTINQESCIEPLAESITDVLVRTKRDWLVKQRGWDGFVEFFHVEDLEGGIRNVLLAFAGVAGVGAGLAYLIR
Test [7] deals with Beta-adrenergic receptor kinase 1 (Homo sapiens, UniProt P25098). Put plainly: aptamer displacement from bead-bound GRK2 – biochemical, cherry pick 1, bead flow cytometry, dose response (AID 504500). (In general: A flow cytometer gives signals particle by particle.)
Beta-adrenergic receptor kinase 1, sequence (P25098 whole entry): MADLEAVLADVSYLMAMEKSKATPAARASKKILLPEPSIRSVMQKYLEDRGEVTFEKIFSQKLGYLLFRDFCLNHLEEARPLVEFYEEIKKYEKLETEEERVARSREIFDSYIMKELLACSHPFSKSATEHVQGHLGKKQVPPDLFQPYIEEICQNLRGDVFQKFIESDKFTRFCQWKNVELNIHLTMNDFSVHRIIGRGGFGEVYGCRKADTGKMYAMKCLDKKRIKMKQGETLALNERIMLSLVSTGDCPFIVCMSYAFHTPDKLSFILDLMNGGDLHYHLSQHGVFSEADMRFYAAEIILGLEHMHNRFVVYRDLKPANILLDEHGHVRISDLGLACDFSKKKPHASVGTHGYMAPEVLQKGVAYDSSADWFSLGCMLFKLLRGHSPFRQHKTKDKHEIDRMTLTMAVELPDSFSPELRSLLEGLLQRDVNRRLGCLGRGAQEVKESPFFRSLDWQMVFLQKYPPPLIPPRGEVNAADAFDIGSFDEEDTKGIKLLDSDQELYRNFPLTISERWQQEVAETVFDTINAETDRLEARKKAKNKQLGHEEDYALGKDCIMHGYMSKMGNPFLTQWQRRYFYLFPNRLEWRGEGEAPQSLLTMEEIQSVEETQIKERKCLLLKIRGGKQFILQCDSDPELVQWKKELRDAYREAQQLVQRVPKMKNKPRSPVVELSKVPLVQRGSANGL
Test [8] concerns the target DNA dC->dU-editing enzyme APOBEC-3A (Homo sapiens, UniProt P31941). Put plainly: APOBEC3A DNA deaminase inhibitors, dose response, biochemical (AID 504722). It counts as functional.
Test [9] addresses CAAX prenyl protease 2 (Homo sapiens, UniProt Q9Y256). Put plainly: human Rce1 protease inhibitors, dose response, biochemical, yeast membranes, quenched-peptide fluorescence, cherry-pick (AID 588849).
Test [10] is described as follows: cytotoxicity in HMLE control line with eGFP shRNA, dose response, counter-screen for HMLE_sh_ECad selective toxicity project, cell-based, HMLE_sh_eGFP, luminescence (AID 463074).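 Further: HMLE human mammary epithelial cells expressing control shRNA against eGFP.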 Type of test: functional, Homo sapiens. On the technique in general: Counterscreens check selectivity or assay interference.
A short description of test [11]: Luminescence Cell-Based Dose Retest to Confirm Inhibitors of Cancer Stem Cells. [Related pubchem assays (depositor defined):AID2717, AID2721]. The conditions noted are these: Homo sapiens. Type of test: functional.
For test [12], the target named is T4, CAAX prenyl protease 2 (Saccharomyces cerevisiae S288c, UniProt Q03530).
T4 sequence (Q03530 whole entry): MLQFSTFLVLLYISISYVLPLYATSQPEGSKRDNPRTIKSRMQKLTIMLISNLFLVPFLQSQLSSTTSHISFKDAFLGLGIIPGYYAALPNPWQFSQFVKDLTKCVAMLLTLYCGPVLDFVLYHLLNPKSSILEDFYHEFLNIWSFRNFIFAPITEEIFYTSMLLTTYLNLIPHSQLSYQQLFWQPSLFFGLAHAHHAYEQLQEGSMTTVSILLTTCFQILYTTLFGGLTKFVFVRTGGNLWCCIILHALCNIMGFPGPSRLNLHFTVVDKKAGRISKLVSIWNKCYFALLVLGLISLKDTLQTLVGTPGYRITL
Type of test: biochemical.

The nature of test [13]: mammalian cell cytotoxicity, dose response, cytotoxicity control, plate reader, cherry-pick samples (AID 504397). It counts as functional, cell-based.
For test [14], the target named is Voltage-gated inwardly rectifying potassium channel KCNH2 (Homo sapiens, UniProt Q12809). Particulars: Potency.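 Further: confirmatory quantitative high-throughput screen measuring inhibition of hERG channel activity.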
Voltage-gated inwardly rectifying potassium channel KCNH2, sequence (Q12809 whole entry): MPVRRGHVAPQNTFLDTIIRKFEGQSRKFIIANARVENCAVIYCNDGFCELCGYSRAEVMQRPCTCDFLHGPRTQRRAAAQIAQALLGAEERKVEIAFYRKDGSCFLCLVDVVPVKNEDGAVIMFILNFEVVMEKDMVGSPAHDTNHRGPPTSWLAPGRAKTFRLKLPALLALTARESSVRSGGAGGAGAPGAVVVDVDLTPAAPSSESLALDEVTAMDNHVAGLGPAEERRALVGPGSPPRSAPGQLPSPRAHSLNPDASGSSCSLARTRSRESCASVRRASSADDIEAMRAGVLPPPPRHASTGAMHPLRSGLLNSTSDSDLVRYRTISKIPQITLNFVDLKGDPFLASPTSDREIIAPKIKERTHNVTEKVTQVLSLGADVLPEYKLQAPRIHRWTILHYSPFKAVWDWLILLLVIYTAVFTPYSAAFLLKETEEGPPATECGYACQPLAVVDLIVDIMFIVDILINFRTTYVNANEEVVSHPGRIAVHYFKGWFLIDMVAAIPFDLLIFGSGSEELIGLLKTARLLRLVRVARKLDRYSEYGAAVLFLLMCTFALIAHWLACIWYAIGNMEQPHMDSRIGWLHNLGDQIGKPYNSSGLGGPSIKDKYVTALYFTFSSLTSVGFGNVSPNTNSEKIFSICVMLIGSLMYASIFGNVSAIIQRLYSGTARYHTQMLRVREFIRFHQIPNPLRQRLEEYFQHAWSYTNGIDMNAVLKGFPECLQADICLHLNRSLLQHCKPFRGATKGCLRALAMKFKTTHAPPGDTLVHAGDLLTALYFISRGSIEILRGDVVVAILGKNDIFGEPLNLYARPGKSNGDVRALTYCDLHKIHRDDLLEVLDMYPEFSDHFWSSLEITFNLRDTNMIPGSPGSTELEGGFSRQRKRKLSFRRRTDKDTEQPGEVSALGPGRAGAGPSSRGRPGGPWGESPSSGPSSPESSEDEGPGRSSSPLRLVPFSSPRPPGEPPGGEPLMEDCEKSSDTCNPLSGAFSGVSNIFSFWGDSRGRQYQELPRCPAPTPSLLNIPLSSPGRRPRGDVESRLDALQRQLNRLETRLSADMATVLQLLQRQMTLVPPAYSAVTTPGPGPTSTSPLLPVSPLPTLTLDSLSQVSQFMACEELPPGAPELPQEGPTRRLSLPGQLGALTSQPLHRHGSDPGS
Test [15] in a line: blockers of SFLLRN-triggered platelet ATP secretion – cell-based, human platelets, luminescence, dry powder, dose response (AID 493100). Type of test: functional.
Test [16] can be described thus: Luminescence Cell-Based Dose Response Follow up to Identify Inhibitors of Platelet Dense Granule Release. [Related pubchem assays (depositor defined):AID1663, AID1678, AID2398]. It counts as functional.
Test [17] deals with MDCK. The test can be described thus: antiviral activity against H1N1 influenza, dose response, cell-based, strain KY180 (AID 540254). It counts as functional. Particulars: Canis lupus familiaris.
The target of a further test is Nonstructural protein 1 (Influenza A virus, UniProt Q194T2). It counts as functional, Influenza A virus (A/California/07/2009(H1N1)).
Nonstructural protein 1, sequence (Q194T2 whole entry): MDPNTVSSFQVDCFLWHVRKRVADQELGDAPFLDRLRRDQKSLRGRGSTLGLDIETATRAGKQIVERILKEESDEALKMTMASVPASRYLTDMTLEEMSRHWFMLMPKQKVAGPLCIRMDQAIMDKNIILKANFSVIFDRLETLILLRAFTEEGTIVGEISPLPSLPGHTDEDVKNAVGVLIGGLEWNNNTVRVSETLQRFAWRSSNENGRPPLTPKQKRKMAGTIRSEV
Test [18] has as its system MDCK. The test can be described thus: MDCK cell cytotoxicity, dose response, cytotoxicity control (AID 540296). The conditions noted are these: Canis lupus familiaris. Type of test: functional.
The subject of the next test is Vero. The test can be described thus: Vero E6 cell cytotoxicity, dose response, cytotoxicity control (AID 540298). It counts as functional. Particulars: Chlorocebus sabaeus.
In test [19] the target is RNA-editing ligase 1, mitochondrial (Trypanosoma brucei brucei, UniProt P86926). The test can be described thus: TbREL1 ligase inhibitors, dose response, biochemical, fluorescence, Trypanosoma brucei (AID 1117295). It counts as functional.
RNA-editing ligase 1, mitochondrial, sequence (P86926 whole entry): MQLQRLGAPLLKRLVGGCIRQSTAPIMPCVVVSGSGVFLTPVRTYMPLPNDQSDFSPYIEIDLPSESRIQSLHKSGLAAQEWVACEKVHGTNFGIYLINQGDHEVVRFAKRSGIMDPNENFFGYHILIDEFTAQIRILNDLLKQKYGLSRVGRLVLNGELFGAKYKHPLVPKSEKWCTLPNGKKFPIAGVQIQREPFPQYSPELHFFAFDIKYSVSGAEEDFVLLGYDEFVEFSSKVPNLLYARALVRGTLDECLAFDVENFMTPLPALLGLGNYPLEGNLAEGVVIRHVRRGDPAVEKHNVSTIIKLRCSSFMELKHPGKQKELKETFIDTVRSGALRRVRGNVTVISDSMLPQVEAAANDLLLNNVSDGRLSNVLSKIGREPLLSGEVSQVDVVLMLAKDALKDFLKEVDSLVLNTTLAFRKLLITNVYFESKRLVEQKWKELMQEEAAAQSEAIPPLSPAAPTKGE
Test [20] concerns the target T5, Microphthalmia-associated transcription factor (Homo sapiens, UniProt O75030).
T5 sequence (O75030 whole entry): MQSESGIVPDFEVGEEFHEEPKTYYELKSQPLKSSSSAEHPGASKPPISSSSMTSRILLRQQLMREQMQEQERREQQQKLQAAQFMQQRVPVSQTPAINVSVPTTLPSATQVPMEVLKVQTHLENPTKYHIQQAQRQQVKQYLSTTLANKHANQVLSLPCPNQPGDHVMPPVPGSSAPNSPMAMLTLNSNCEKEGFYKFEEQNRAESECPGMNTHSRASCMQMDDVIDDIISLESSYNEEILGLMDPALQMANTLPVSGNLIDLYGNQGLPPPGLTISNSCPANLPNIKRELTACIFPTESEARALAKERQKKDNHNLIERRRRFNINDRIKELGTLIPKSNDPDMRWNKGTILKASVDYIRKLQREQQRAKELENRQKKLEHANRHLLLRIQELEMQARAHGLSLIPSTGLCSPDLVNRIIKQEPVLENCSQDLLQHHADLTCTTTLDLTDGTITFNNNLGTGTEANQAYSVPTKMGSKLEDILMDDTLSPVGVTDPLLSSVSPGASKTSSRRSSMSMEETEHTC
Put plainly: TRPM1 promoter luciferase signal decrease, dose response, MITF inhibitor project, cell-based, SK-MEL-5, cherry-picked, set 3 (AID 493073).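 Further: SK-MEL-5 melanoma cells with luciferase driven by the MITF target TRPM1 promoter.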 Type of test: functional.

Test [21] has as its system A-375. Put plainly: MITF: Counter assay: A375 proliferation Measured in Cell-Based System Using Plate Reader - 2084-03_Inhibitor_Dose_DryPowder_Activity. [Related pubchem assays (depositor defined):AID488944]. Type of test: functional. The conditions noted are these: Homo sapiens.
Test [22] relates to A-375. The test can be described thus: A375 melanoma cell viability reduction, dose response, counter-screen for MITF modulator project, cherry-pick samples, set 2 (AID 540335). It counts as functional, cell-based. Particulars: Homo sapiens.

T3 sequence (P63165 whole entry): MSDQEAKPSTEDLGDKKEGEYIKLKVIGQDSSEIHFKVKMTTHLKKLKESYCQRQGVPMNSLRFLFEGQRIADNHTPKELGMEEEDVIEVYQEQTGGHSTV
DNA dC->dU-editing enzyme APOBEC-3G, sequence (Q9HC16 whole entry, the tested form may be a part): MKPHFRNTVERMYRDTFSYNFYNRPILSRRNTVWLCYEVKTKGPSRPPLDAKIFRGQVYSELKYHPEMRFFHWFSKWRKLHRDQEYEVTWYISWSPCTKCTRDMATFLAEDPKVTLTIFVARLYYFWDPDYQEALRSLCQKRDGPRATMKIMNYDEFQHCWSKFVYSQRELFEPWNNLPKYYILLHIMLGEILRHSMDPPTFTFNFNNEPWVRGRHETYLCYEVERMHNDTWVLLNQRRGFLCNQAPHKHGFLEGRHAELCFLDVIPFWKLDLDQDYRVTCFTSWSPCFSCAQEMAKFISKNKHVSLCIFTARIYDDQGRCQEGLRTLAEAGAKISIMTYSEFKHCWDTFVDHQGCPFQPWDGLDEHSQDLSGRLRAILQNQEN
CAAX prenyl protease 2 (Homo sapiens, UniProt Q9Y256), sequence (Q9Y256 whole entry): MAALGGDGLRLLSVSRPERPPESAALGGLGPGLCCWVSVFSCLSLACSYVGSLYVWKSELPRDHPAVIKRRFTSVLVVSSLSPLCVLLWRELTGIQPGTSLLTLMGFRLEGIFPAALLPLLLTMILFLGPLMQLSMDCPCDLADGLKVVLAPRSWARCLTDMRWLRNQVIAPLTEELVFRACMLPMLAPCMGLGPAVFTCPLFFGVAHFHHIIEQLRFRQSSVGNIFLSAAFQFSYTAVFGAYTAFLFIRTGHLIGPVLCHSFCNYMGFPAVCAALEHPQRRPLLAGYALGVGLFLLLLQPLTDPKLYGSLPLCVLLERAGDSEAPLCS
DNA dC->dU-editing enzyme APOBEC-3A, sequence (P31941 whole entry): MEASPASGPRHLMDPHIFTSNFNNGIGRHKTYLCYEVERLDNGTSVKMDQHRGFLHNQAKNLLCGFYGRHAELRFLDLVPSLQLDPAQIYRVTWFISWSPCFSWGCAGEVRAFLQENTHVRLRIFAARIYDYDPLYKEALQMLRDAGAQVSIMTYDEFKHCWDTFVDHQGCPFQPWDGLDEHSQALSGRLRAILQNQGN

In general, EC50 refers to the concentration giving half of the maximal effect. Take `C=C(C)C(=O)Nc1cccc(C2=NOC3(C2)C[C@H](C(N)=O)N(C(=O)/C=C/C)C3)c1` (some centres undefined): the EC50 is 2.71 µM (active) in [1] and 21.3 µM (inactive) in test [7]. The IC50 is 6.14 µM (active) in [2]; 1.61 µM (active) in test [3]; 1.93 µM (active) in test [4]; > 66.6 µM (inactive) in [5]; 3.48 µM (active) in test [6]; > 100 µM (inactive) in test [8].

As usually defined, the AC50 is the concentration giving half of the maximal activity seen. As for `Cc1ccc(OCCN2C(=O)C(=O)c3cc(C)ccc32)cc1`, the AC50 on CAAX prenyl protease 2 [9] is 12.8 µM (active); in test [10], 145 µM (active); in [11], 24.2 µM (active); at CAAX prenyl protease 2 [12] it was 1.6 µM (active); in test [13], 4.64 µM (active).

As for `N[C@@H](Cc1ccc(F)cc1)C(=O)O`, the concentration at half-maximal activity (AC50) in [14] is 35.5 µM (inconclusive).

Take `CCCCC(=O)N/N=C(\C)c1ccc(NC(=O)C(F)(F)F)cc1`: in test [15], the AC50 was 41.3 µM (active). Further, in [16], the EC50 is 5.49 µM (active).

In general, CC50 refers to the concentration giving 50% cytotoxicity. For `CCN(c1ccccc1)S(=O)(=O)c1ccc(C(=O)N(CCCN(C)C)c2nc3c(C)cccc3s2)cc1`, the IC50 in the test on MDCK [17] is > 100 µM (active); at Nonstructural protein 1, > 100 µM (active); in test [19], > 96.6 µM (inactive). The results for the CC50 in the test with MDCK [18] and with Vero were 10.8 µM (active) and 16 µM (active), respectively.

Regarding `Cc1ccc([N+](=O)[O-])cc1N1C(=O)CS/C1=N\NC(=O)c1cccnc1`, the AC50 in test [20] was 48.7 µM (active); in the test with A-375 [21], > 35 µM (active); in the test with A-375 [22], > 35 µM (active).
